Data as given in patent publication US20240293337A1, “USE OF DOXERCALCIFEROL TO TREAT AND/OR PREVENT UTERINE FIBROIDS OR POLYCYSTIC OVARY SYNDROME” (priority 2023, published 2024).

Experiments:
[1] = Body weight change in PDX UF mice; type: in vivo, NOD/SCID mice; conditions: 300 ng/kg i.p. 3 times per week, 6 weeks
Procedure: (§1) After xenograft mice undergo intraperitoneal injection of doxercalciferol (300 ng/kg, 3 times per week) or saline for 6 weeks. Body weight is monitored weekly during doxercalciferol treatment. Six weeks after doxercalciferol treatment insulin resistance is assessed using GTT and then mice are anesthetized and blood is collected to measure liver enzyme and AMH levels, ovary tissue is removed for histological analysis, total RNA is extracted for sequencing, and tumor size is measured with a digital caliper.

[2] = system: Human MSC derived adipocytes; test: MSC derived adipocyte differentiation, 14 days, morphology and oil red-O staining; type: cell-based; conditions: 100 nM
Procedure: Human mesenchymal stem cells (MSC) are used as an in vitro cell culture model of adipocyte precursors to assess adipocyte differentiation. MSC cells are purchased from (Lonza). The cells are cultured in the DMEM/F12 media containing 10% FBS. At approximately 80% confluence, the cells are trypsinized using TrypLE select enzyme (Gibco, MA) and are serially expanded. At the end of the culture expansion, MSCs are collected and centrifuged at 300×g for 5 minutes. Human MSCs are treated with doxercalciferol and are cultured in adipocyte induction medium for 14 days. Mesenchymal Adipogenesis Kit (Sigma) and manufacturer's induction protocol are used for adipocyte induction. Imaging and morphology analysis is performed on days 1, 7, 10, and 14. On day 14 when adipocyte differentiation is completed, the cells undergo oil red-O staining and are imaged for further morphology analysis.

[3] = Serum measurements in PDX UF mice (liver enzymes, calcium, AMH); type: in vivo, NOD/SCID mice
Procedure: as §1
Blood is collected from all groups by cardiac exsanguination under isoflurane anesthesia: serum is separated and stored at −80° C. Serum levels are measured for AMH, ALT, and total bilirubin.

[4] = system: patient derived xenograft (PDX) mouse model of uterine fibroids (UF); test: Tumor growth in patient derived xenograft (PDX) mouse model of uterine fibroids; type: in vivo, NOD/SCID mice; conditions: PDX UF mice, 300 ng/kg i.p. 3 times per week, 6 weeks
Procedure: Female NOD/SCID are housed in a vivarium for 1 week under specific pathogen-free conditions. The animal experiment protocol for this study is approved, and all animal experiments are performed in compliance with policies and guidelines for use of laboratory animals. UF samples are obtained from African-American female patients with UF (n=4). This human UF tissue is xenografted into female mice that have been hormonally supplemented with progesterone and estradiol (n=2 mice/patient). Tumor size is measured at implantation. After xenograft mice undergo intraperitoneal injection of doxercalciferol (300 ng/kg, 3 times per week) or saline for 6 weeks. Body weight is monitored weekly during doxercalciferol treatment. Six weeks after doxercalciferol treatment insulin resistance is assessed using GTT and then mice are anesthetized and blood is collected to measure liver enzyme and AMH levels, ovary tissue is removed for histological analysis, total RNA is extracted for sequencing, and tumor size is measured with a digital caliper.

[5] = system: letrozole induced polycystic ovary syndrome (PCOS) mouse models; test: Glucose tolerance test in PCOS mice; type: in vivo, C57BL/6 mice; conditions: 300 ng/kg i.p. 3 times per week, 120 minutes after IP glucose injection
Procedure: At 3.5 weeks of age, mice (n=11/group) are subcutaneously implanted with a placebo or 5 mg letrozole (LTZ) pellet (Innovative Research of America, Sarasota, FL, USA), which provides a constant release of LTZ (50 μg/day). Body weight is monitored weekly before and post-implantation. Body weight and insulin resistance (measured by glucose tolerance test, GTT) are used to monitor development of PCOS characteristics.
Five weeks after placebo or LTZ pellet implantation, mice undergo intraperitoneal injection of doxercalciferol (300 ng/kg) or saline 3 times per week for 6 weeks. Six weeks after doxercalciferol treatment, the mice are anesthetized and ovary, uterus, gonadal white fat, kidney, and liver tissue are collected. Each of these tissues are fixed in 4% paraformaldehyde for further histological analysis.
Glucose tolerance testing is performed on healthy, PCOS, and treated mice 3 weeks after doxercalciferol treatment. Mice are fasting for 16 h (5 p.m. to 9 a.m.), with free access to drinking water, after which they receive an intra-peritoneal (i.p.) injection of D-glucose (2.0 g/kg body weight). Blood glucose level is measured at 0, 15, 30, 60, 90, and 120 minutes following glucose injection using a Bayer glucose monitor (Roche Diagnostics Corp, IN, USA).

[6] = Serum chemistry in PCOS mice; type: in vivo, C57BL/6 mice; conditions: after five weeks of treatment, most of the serum levels

With `C=C1/C(=C\C=C2/CCC[C@]3(C)[C@@H]([C@H](C)/C=C/[C@H](C)C(C)C)CC[C@@H]23)C[C@@H](O)C[C@@H]1O` [doxercalciferol] the “decrease in body weight” value [1] was 24%, the “Oil red-O staining, presence of adipocytes” value ([2]; 1 nM, 10 nM, day 14) was “presence of adipocytes in all treatment groups except the 100 nM group” and the cell morphology ([2]; 14 days) was “most cells dead”. The “calcium levels vs reference range for NOD CB17-Prkdc^scid/NcrCrl mice” value [3] was “overlap with the reference range”, the “calcium level, Mean” value ([3]; N 4) was 11.93 and the ALT level ([3]; vs control) was “no significant effect”. The AMH serum levels ([3]; vs control) was “no significant effect”, the AST level ([3]; vs control) was “no significant effect” and the total bilirubin level ([3]; vs control) was “no significant effect”. The “tumor growth (significant reduction, down to)” value [4] was 55.6%, the “blood glucose levels, vs control mice” value [5] was “elevated levels compared to control mice” and the “blood glucose levels, vs untreated PCOS mice” value [5] was “significantly lower blood glucose levels”. The “serum levels vs reference range of C57BL/6 mice” value [6] was “overlap with the reference range”.
